This is an account of results in patent US8338565B2, “Macrocyclic compounds for inhibition of tumor necrosis factor alpha” (Ensemble Therapeutics Corporation, priority 2008, dated 2012).

Numbered stars: 1 amine (or outer) side, 2 acyl side, 3 side chain; on linkers, the order of the positions; unused ones are H or OH. Bridge positions count the residues as written; N and C are the ends. Square brackets hold non-standard residues; d marks the D form. Peptide text beside a SMILES is read from it. Phe(4-COOH) = N[C@@H](Cc1ccc(C(=O)O)cc1)C(=O)O; Bip = N[C@@H](Cc1ccc(-c2ccccc2)cc1)C(=O)O; dBip = N[C@H](Cc1ccc(-c2ccccc2)cc1)C(=O)O; Phe(4-NH2) = Nc1ccc(C[C@H](N)C(=O)O)cc1; d(hPhe) = N[C@H](CCc1ccccc1)C(=O)O; hPhe = N[C@@H](CCc1ccccc1)C(=O)O; Suc = O=C(CCC(=O)[*:2])[*:1]; Ava = NCCCCC(=O)O; GABA = NCCCC(=O)O; βAla = NCCC(=O)O Some results are limits rather than exact numbers.

For this assay, the target named is T1, TNFα / TNFα receptor (TNFα R1/Fc) (Homo sapiens, UniProt P01375).
T1 construct: purchased R&D Systems
T1 sequence (P01375 77-233 limits assumed, species assumed): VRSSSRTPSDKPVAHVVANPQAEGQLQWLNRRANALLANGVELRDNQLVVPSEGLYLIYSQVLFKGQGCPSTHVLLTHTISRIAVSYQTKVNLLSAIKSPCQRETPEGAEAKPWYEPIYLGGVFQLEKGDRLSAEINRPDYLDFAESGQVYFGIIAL
Put plainly: Inhibition of binding of TNFα to the TNFα receptor (plate ELISA competition). To be noted: Table 2; read-out: Activity (IC50, inhibition of TNFα binding to TNFα R1/Fc). The essentials:
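Compound dilutions were preincubated 30 min at RT with 8.33 nM TNFα R1/Fc in PBST with 2% DMSO, then added to wells coated with 15 nM TNFα for 30 min. Bound receptor was detected with HRP anti-human Fc and TMB, read as A450.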
As to `C[C@H](NC(=O)[C@@H]1Cc2ccc(cc2)NC(=O)CCC(=O)N[C@H](Cc2ccccc2)C(=O)N[C@@H](Cc2ccc(-c3ccccc3)cc2)C(=O)N[C@H](CCc2ccccc2)C(=O)N1)C(=O)O` [Compound 458] ([dF][Bip][d(hPhe)][Phe(4-NH2)]A-OH; linker N-4 via Suc), the IC50 was greater than 100 µM.

Turning to `O=C(O)CCNC(=O)[C@@H]1Cc2ccc(cc2)NC(=O)CCC(=O)N[C@H](Cc2ccccc2)C(=O)N[C@@H](Cc2ccc(-c3ccccc3)cc2)C(=O)N[C@H](CCc2ccccc2)C(=O)N1` [Compound 459] ([dF][Bip][d(hPhe)][Phe(4-NH2)][βAla]-OH; linker N-4 via Suc), the IC50 is greater than 100 µM.

In the case of `O=C(O)CCCNC(=O)[C@@H]1Cc2ccc(cc2)NC(=O)CCC(=O)N[C@H](Cc2ccccc2)C(=O)N[C@@H](Cc2ccc(-c3ccccc3)cc2)C(=O)N[C@H](CCc2ccccc2)C(=O)N1` [Compound 460] ([dF][Bip][d(hPhe)][Phe(4-NH2)][GABA]-OH; linker N-4 via Suc), the IC50 is greater than 100 µM.

As for `O=C(O)CCCCNC(=O)[C@@H]1Cc2ccc(cc2)NC(=O)CCC(=O)N[C@H](Cc2ccccc2)C(=O)N[C@@H](Cc2ccc(-c3ccccc3)cc2)C(=O)N[C@H](CCc2ccccc2)C(=O)N1` [Compound 461] ([dF][Bip][d(hPhe)][Phe(4-NH2)][Ava]-OH; linker N-4 via Suc), the IC50 was greater than 100 µM.

As for `O=C(O)CNC(=O)[C@@H]1Cc2ccc(cc2)NC(=O)CCC(=O)N[C@H](Cc2ccccc2)C(=O)N[C@@H](Cc2ccc(-c3ccccc3)cc2)C(=O)N[C@H](CCc2ccccc2)C(=O)N1` [Compound 462] ([dF][Bip][d(hPhe)][Phe(4-NH2)]G-OH; linker N-4 via Suc), the IC50 was greater than 100 µM.

With `O=C1CCNC(=O)c2ccc(cc2)C[C@@H](C(=O)O)NC(=O)[C@H](Cc2ccccc2)NC(=O)[C@H](Cc2ccc(-c3ccccc3)cc2)NC(=O)[C@H](CCc2ccccc2)N1` [Compound 463] ([βAla][hPhe][Bip]F[Phe(4-COOH)]-OH; lactam N-5), the IC50 is greater than 100 µM.

As for `O=C1CCNC(=O)c2ccc(cc2)C[C@@H](C(=O)O)NC(=O)[C@H](Cc2ccccc2)NC(=O)[C@H](Cc2ccc(-c3ccccc3)cc2)NC(=O)[C@@H](CCc2ccccc2)N1` [Compound 464] ([βAla][d(hPhe)][Bip]F[Phe(4-COOH)]-OH; lactam N-5), the IC50 was less than 10 µM.

Consider `O=C1CCNC(=O)c2ccc(cc2)C[C@@H](C(=O)O)NC(=O)[C@H](Cc2ccccc2)NC(=O)[C@@H](Cc2ccc(-c3ccccc3)cc2)NC(=O)[C@H](CCc2ccccc2)N1` [Compound 465] ([βAla][hPhe][dBip]F[Phe(4-COOH)]-OH; lactam N-5), for which the IC50 is less than 10 µM.

Take `O=C1CCNC(=O)c2ccc(cc2)C[C@@H](C(=O)O)NC(=O)[C@H](Cc2ccccc2)NC(=O)[C@@H](Cc2ccc(-c3ccccc3)cc2)NC(=O)[C@@H](CCc2ccccc2)N1` [Compound 466] ([βAla][d(hPhe)][dBip]F[Phe(4-COOH)]-OH; lactam N-5): the IC50 was greater than 100 µM.

Regarding `O=C1CCNC(=O)c2ccc(cc2)C[C@@H](C(=O)O)NC(=O)[C@@H](Cc2ccccc2)NC(=O)[C@H](Cc2ccc(-c3ccccc3)cc2)NC(=O)[C@H](CCc2ccccc2)N1` [Compound 467] ([βAla][hPhe][Bip][dF][Phe(4-COOH)]-OH; lactam N-5), the IC50 was greater than 100 µM.

With `O=C1CCNC(=O)c2ccc(cc2)C[C@@H](C(=O)O)NC(=O)[C@@H](Cc2ccccc2)NC(=O)[C@@H](Cc2ccc(-c3ccccc3)cc2)NC(=O)[C@H](CCc2ccccc2)N1` [Compound 468] ([βAla][hPhe][dBip][dF][Phe(4-COOH)]-OH; lactam N-5), the IC50 was greater than 100 µM.

As to `O=C1CCNC(=O)c2ccc(cc2)C[C@@H](C(=O)O)NC(=O)[C@@H](Cc2ccccc2)NC(=O)[C@@H](Cc2ccc(-c3ccccc3)cc2)NC(=O)[C@@H](CCc2ccccc2)N1` [Compound 469] ([βAla][d(hPhe)][dBip][dF][Phe(4-COOH)]-OH; lactam N-5), the IC50 was greater than 100 µM.
